Laboratory results as given in ChEMBL document CHEMBL1201862, “PubChem BioAssay data set” (2004).
Active and inactive are the calls of the source.

Columns and labels:
H9c2 = experiment: cells; assay type: functional, cell-based; details: Rattus norvegicus, H9c2, Myocardium;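 also: confirmatory concentration-response retest of ultra-high-throughput screening hits for modulation of myocardial damage; cell death induced by hydrogen peroxide oxidative stress; compound pretreatment for 60 min then peroxide exposure for 2 h; potency is for protecting the cells against peroxide damage rather than for killing them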
[1] = biological target: T1, Polyadenylate-binding protein 1 (Homo sapiens, UniProt P11940); experiment: PABP1 MLLE–PAM2 interaction inhibitors, dose response, miRNA deadenylation inhibitor project, biochemical, fluorescence polarization, Cy5-PAM2 peptide, secondary (AID 602260); assay type: functional; details: read-out: IC50_Mean
[2] = biological target: T1, Polyadenylate-binding protein 1; experiment: PABP1 MLLE–PAM2 binding inhibitor potency, dose response, biochemical, fluorescence polarization, FITC-PAM2 peptide (AID 602259); assay type: functional; details: read-out: IC50_Mean
cells [3] = assay type: functional, cell-based
cells [4] = assay type: functional, cell-based; remark: listed apart in the source
Protein RecA = biological target: T2, Protein RecA (Mycobacterium tuberculosis, UniProt P9WHJ3); experiment: Fluorescence Cell-Free Homogeneous Dose Retest to Identify Inhibitors of RecA-Intein Splicing Activity. [Related pubchem assays (depositor defined):AID2097, AID2223, AID489010, AID492950]; assay type: functional
T2 sequence (P9WHJ3 whole entry): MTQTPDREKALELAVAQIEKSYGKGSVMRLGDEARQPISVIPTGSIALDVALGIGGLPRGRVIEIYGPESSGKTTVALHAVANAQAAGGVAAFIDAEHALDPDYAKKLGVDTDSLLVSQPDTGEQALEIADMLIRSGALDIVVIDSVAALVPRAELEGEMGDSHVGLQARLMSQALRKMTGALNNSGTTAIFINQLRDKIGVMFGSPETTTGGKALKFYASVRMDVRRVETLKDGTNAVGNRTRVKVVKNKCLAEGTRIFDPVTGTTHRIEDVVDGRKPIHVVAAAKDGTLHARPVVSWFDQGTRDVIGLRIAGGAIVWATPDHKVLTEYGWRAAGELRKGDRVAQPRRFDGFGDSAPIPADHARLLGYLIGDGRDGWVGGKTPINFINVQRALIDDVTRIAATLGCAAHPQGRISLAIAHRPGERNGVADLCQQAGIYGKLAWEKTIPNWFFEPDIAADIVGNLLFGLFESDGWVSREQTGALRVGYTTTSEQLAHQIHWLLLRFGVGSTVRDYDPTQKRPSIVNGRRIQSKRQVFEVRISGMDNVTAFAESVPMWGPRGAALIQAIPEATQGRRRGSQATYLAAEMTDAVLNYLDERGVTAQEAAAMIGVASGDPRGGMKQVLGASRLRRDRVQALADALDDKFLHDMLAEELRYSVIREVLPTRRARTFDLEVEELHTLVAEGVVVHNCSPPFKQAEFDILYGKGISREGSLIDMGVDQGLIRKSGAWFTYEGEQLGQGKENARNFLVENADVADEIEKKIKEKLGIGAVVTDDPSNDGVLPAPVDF

Genome polyprotein = Genome polyprotein (dengue virus type 2, UniProt P29990); experiment: Dengue-2 NS5 methyltransferase inhibitors, primary screen, biochemical, confirmation dose response (AID 588689); assay type: functional
[5] = biological target: T3, Replicative DNA helicase DnaB (Mycobacterium tuberculosis, UniProt P9WMR3); experiment: DnaB intein splicing inhibitors, dose response, biochemical, cell-free fluorescence (AID 449749); assay type: functional
T3 sequence (P9WMR3 whole entry): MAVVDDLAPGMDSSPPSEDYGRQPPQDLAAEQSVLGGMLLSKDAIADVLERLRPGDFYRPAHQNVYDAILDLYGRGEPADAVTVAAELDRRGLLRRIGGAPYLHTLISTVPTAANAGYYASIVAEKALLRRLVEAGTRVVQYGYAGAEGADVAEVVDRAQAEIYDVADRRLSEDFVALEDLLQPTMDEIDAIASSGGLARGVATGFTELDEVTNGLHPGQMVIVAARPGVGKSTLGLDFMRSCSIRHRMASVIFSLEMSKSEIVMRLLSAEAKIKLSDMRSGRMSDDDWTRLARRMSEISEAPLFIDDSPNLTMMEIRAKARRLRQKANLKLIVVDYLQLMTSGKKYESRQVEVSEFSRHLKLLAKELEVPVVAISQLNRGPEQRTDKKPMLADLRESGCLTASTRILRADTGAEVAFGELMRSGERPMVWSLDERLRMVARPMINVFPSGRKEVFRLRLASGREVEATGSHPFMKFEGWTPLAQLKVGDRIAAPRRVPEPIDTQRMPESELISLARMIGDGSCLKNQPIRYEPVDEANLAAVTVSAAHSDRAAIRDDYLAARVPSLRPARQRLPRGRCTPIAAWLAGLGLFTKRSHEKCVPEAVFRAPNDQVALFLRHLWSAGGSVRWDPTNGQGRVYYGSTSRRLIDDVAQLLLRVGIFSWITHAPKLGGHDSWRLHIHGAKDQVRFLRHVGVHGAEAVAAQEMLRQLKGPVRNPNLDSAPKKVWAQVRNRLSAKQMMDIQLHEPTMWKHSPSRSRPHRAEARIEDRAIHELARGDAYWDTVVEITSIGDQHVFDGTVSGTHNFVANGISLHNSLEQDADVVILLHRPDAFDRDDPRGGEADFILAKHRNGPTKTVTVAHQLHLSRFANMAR

[6] = growth suppression of beta-catenin-knockout colon cells, dose response, cell-based, HCT116, human colon tumor (AID 1045); assay type: functional;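 also: HCT116 colon tumor cells with beta catenin knocked out; cells exposed to compound for 60 hours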
[7] = growth suppression of PTEN-null colon cells, dose response, cell-based, HCT116 PTEN knockout (AID 1047); assay type: functional;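 also: HCT116 colon tumor cells with PTEN knocked out; cells exposed to compound for 60 hours before readout; potency for loss of cell viability measured by luminescence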
BJ [8] = experiment: cytotoxicity toward BJ-TERT-LT-ST fibroblasts, dose response, cell-based, RAS-independent, luminescence (AID 1935); assay type: functional; details: Homo sapiens;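 also: BJ fibroblasts immortalized with TERT plus LT and ST oncogenes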
[9] = cytotoxicity toward DRD oncogenic fibroblasts, dose response, cell-based, non-viral oncogenic, luminescence (AID 1934); assay type: functional; details: Homo sapiens
BJ [10] = experiment: cells; assay type: functional, cell-based; details: Homo sapiens
BJ [11] = experiment: cytotoxicity toward BJ-TERT fibroblasts, dose response, cell-based, RAS-independent, luminescence (AID 1933); assay type: functional; details: Homo sapiens
[12] = cytotoxicity in HEK-293T cells, dose response, cytotoxicity control for TCR NF-kB inhibitor project, luminescence, T-cell screen hits (AID 489026); assay type: functional, cell-based;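 also: cells exposed to compound about 14 hours before the viability readout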
[13] = P. falciparum Dd2 growth inhibitors, dose response, SYBR Green, cherry-picked samples (AID 1159567); assay type: functional, cell-based
Vero = experiment: cells; assay type: functional; details: Chlorocebus sabaeus
[14] = Luminescence Cell-Based Dose Retest to Confirm Inhibitors of Cancer Stem Cells. [Related pubchem assays (depositor defined):AID2717, AID2721]; assay type: functional; details: Homo sapiens
Paired box protein Pax-8 = Paired box protein Pax-8 (Homo sapiens, UniProt Q06710); experiment: inhibitors of PAX8-driven TPO luciferase reporter, dose response, RMG-I cells, cherry-pick (AID 687027); assay type: functional, cell-based;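 also: luciferase reporter driven by Pax8 target thyroperoxidase promoter measured by SteadyGlo luminescence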
Paired box protein Pax-8, sequence (Q06710 whole entry): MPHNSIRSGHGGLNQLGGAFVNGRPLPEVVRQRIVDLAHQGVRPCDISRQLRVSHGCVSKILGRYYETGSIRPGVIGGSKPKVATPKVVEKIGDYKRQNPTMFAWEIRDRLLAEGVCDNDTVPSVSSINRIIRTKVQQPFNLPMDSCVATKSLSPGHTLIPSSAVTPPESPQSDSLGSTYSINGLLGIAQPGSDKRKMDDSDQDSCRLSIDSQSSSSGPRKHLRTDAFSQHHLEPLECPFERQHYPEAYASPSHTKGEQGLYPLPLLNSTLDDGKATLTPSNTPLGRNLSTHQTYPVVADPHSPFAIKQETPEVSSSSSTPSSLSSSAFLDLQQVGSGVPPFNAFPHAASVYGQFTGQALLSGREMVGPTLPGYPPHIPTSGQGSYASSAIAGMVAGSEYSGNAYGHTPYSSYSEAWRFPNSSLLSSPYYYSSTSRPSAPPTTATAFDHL

T1 sequence (P11940 whole entry): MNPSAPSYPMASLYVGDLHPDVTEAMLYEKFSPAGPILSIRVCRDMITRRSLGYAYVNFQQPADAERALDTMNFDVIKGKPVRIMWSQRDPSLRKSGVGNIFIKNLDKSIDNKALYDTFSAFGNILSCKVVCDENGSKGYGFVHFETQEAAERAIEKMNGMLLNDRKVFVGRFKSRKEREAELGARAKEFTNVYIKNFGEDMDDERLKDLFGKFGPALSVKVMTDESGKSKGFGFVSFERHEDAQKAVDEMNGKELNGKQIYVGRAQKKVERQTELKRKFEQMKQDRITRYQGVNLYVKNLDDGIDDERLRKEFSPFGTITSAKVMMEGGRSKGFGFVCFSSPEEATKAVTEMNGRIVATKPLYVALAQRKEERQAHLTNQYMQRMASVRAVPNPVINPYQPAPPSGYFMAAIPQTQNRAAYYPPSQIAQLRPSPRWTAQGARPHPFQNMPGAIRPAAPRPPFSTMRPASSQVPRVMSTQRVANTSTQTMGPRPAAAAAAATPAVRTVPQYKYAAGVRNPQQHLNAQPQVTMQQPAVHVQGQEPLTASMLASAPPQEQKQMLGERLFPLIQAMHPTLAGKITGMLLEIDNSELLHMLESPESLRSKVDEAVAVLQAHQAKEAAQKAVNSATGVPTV
Genome polyprotein, sequence (P29990 2492-3391 limits assumed): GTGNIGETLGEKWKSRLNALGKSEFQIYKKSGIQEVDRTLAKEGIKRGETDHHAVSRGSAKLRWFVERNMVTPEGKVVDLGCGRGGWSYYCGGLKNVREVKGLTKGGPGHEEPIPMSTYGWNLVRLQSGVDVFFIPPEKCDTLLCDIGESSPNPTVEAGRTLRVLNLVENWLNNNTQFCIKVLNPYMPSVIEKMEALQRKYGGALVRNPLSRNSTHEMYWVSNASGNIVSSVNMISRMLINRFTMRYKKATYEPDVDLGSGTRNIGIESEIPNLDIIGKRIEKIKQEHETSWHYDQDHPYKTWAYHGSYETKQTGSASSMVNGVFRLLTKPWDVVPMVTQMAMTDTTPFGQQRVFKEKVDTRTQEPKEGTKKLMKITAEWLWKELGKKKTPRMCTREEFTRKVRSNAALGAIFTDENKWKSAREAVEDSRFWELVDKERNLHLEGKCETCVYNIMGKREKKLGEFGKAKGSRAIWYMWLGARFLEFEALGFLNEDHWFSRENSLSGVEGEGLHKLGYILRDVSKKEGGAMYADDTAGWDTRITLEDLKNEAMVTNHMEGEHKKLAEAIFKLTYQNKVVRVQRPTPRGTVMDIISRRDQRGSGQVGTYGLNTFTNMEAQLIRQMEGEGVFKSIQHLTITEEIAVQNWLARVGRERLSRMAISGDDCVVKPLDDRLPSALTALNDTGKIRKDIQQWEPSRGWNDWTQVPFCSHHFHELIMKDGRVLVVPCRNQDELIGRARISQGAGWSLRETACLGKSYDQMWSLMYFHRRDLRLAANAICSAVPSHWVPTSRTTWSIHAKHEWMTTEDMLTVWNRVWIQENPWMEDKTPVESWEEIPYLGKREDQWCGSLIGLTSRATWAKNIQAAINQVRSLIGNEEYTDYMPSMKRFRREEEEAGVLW

**Q.** Which IC50 (H9c2) does the source give for `COCCCNC(=O)/C(C#N)=C1\N=C(NC(=O)c2cccs2)c2ccccc21` here?
**A.** > 79 µM (inactive)

**Q.** Which IC50 (H9c2) does the source give for `CC1Cc2ccccc2N1C(=O)Cn1nc(C(=O)O)c2ccccc2c1=O` (stereo not drawn) here?
**A.** 13.7 µM (active)

**Q.** Which IC50 [1] does the source give for `CCc1nc(SCC(=O)c2ccccc2)c2ccccc2n1` here?
**A.** > 66 µM (inactive)

**Q.** And the IC50 [2]?
**A.** > 66 µM (inactive)

**Q.** And the EC50 (cells [3])?
**A.** > 350 µM (not active)

**Q.** What about the EC50 (cells [4]) of the same compound?
**A.** > 350 µM (not active)

**Q.** Which EC50 (Protein RecA) does the source give for `O=C1C(Cl)=C(N2CCCCC2)C(=O)N1c1ccccc1` here?
**A.** 3.22 µM (active)

**Q.** What about the IC50 (Genome polyprotein) of the same compound?
**A.** 66.9 µM (active)

**Q.** What about the AC50 [5] of the same compound?
**A.** 8.22 µM (active)

**Q.** Which IC50 (H9c2) does the source give for `CCCCOc1ccc(C(=O)NCC(=O)N(C)Cc2nc(O)c3ccccc3n2)cc1` here?
**A.** > 79 µM (inactive)

**Q.** For `COCCNC(=O)COC(=O)c1ccc(OCC(=O)Nc2ccccc2OC)c(OC)c1`, which IC50 (H9c2) is on record?
**A.** > 79 µM (inactive)

**Q.** For `O=C(CNC(=O)c1ccccc1F)N/N=C/c1cc(Br)ccc1OC(=O)/C=C/c1ccco1`, which IC50 (H9c2) is on record?
**A.** > 79 µM (inactive)

**Q.** Which IC50 (H9c2) does the source give for `COc1cc(/C=N/NC(=O)c2cccnc2)ccc1OS(=O)(=O)c1ccc(F)cc1` here?
**A.** 7.92 µM (active)

**Q.** What does the source list for `C=CCC1(C#N)C(=S)N=C2CC(C)(C)CC(O)=C2C1c1ccc(Br)cc1` (stereo not drawn)?
**A.** EC50 [6]: 14.9 µM (active); EC50 [7]: 14.6 µM (active)

**Q.** Which results are given for `CCOC(=O)c1c(C)[nH]c(C(=O)N/N=C/c2ccc(Br)cc2)c1C`?
**A.** EC50 (BJ [8]): 0.733 µM (inconclusive); EC50 [9]: 0.387 µM (active); EC50 (BJ [10]): 35.1 µM (inconclusive); EC50 (BJ [11]): 0.327 µM (active); IC50 [12]: > 80 µM (inactive)

**Q.** Which AC50 [13] does the source give for `CCC(=O)N1CC2(C1)CN(Cc1ccc(Cl)cc1)[C@@H](CO)c1[nH]c3cc(OC)ccc3c12` here?
**A.** 7.24 µM (active)

**Q.** For `CO[C@H]1CN(C)C(=O)c2cc(NC(=O)C3CC3)ccc2OC[C@H](C)N(Cc2cccc(F)c2)C[C@H]1C`, which AC50 [13] is on record?
**A.** 6.05 µM (active)

**Q.** Which AC50 [13] does the source give for `N#C[C@H]1[C@H](c2ccc(C#CC3CCCCC3)cc2)[C@@H](CO)N1S(=O)(=O)c1ccccc1` here?
**A.** 3.24 µM (active)

**Q.** Which AC50 [13] does the source give for `CCCC#Cc1cnc2c(c1)C(=O)N([C@@H](C)CO)C[C@H](C)[C@H](CN(C)C(=O)Nc1cccc(F)c1)O2` here?
**A.** 8.83 µM (active)

**Q.** For `COc1ccc(-c2ccc([C@@H]3[C@H]4CNC[C@@H]3N4C(=O)Nc3ccc(C(F)(F)F)cc3)cc2)cc1`, which AC50 [13] is on record?
**A.** 15 µM (active)

**Q.** Which AC50 [13] does the source give for `CO[C@H]1CN(C)C(=O)c2cc(NC(=O)C3CC3)ccc2OC[C@@H](C)N(Cc2cc(F)ccc2F)C[C@H]1C` here?
**A.** 6.09 µM (active)

**Q.** For `O=C(O)CN1C(=O)/C(=C2\SC(=S)N(C(Cc3ccccc3)C(=O)O)C2=O)c2ccccc21` (stereo not drawn), which IC50 [1] is on record?
**A.** > 66 µM (inactive)

**Q.** What about the IC50 [2] of the same compound?
**A.** > 66 µM (inactive)

**Q.** And the IC50 (Genome polyprotein)?
**A.** 42 µM (active)

**Q.** Which CC50 (Vero) does the source give for `C[C@]12CC[C@H]3[C@@H](CC[C@]4(O)C[C@@H](O)CC[C@]34C=O)[C@@]1(O)CC[C@@H]2C1=CC(=O)OC1` [STROPHANTHIDIN] here?
**A.** 1.22 µM (active)

**Q.** What about the AC50 [14] of the same compound?
**A.** 0.582 µM (active)

**Q.** What about the AC50 (Paired box protein Pax-8) of the same compound?
**A.** 2.22 µM (active)

**Q.** And the IC50 [12]?
**A.** > 80 µM (inactive)
